Patent US6472369B1, “Anticancer compounds and methods” (The Regents of the University of Michigan, priority 1996, dated 2002)

Columns and labels:
[1] = test system: metastatic SUM-52 PE breast cancer cells; assay: SU-ECM invasion assay, SUM-52 PE breast cancer cells; assay type: cell-based, human; conditions: SUM-52 PE; for inhibition of PHSRN-induced invasion of SU-ECM: serum free medium, 100 ng per ml PHSRN, FIG. 5B; for inhibition of serum-induced invasion of SU-ECM: FIG. 5A
Experimental: Human breast carcinoma cell lines SUM 52 PE and SUM 44 PE were originally cultured from the pleural effusions of patients with metastatic breast cancer; and SUM 102 was cultured from a primary, microinvasive breast carcinoma (Ethier, S. P., Mahack, M. L., Gullick, W. J., Frank, T. S., and Weber, B. L. Differential isolation of normal luminal mammary epithelial cells and breast cancer cells from primary and metastatic sites using selective media. Cancer Res. 53: 627-635).
Adult Strongylocentrotus purpuratus sea urchins were obtained from Pacific BioMarine, and their embryos were cultured to the early pluteus stage in artificial sea water at 15° C. SU-ECM were prepared from them by treatment with nonionic detergent and strerilized by dilution in the appropriate media.
Cells were harvested by rinsing in Hanks' balanced salt solution, followed by brief treatment with 0.25% trypsin, 0.02% EDTA, and pelleting and resuspension in the appropriate medium with or without 5% FCS at a density of about 50,000 cells per ml. When appropriate, purified bovine plasma fibronectin (Sigma), purified 120 kDa chymotryptic fragment (Gibco BRL), PHSRN (SEQ ID NO:1) or PHSCN (SEQ ID NO:86) peptides (synthesized at the Biomedical Research Core Facilities of the University of Michigan), or GRGDSP (SEQ ID NO:83) or GRGESP (SEQ ID NO:84) peptides (Gibco BRL) were added to the resuspended cells prior to placement of the cells on SU-ECM. In each well of a plate used for an invasion assay, SU-ECM were placed in 0.5 ml of the appropriate medium, and 0.5 ml of the resuspended cells dropped on their exterior surfaces. Invasion assays were incubated 1 to 16 hours prior to assay. If some circumstances, invasion assays were fixed in phosphate-buffered saline (PBS) with 2% formaldehyde for 5 minutes at room temperature, then rinsed into PBS.
Invasion assays were coded and scored blindly by microscopic examination under phase contrast at 200- and 400-fold magnification. Each cell contacting an SU-ECM was scored for its position relative to the exterior or interior surfaces. A cell was judged to have invaded if it was located on an interior surface below the focal plane passing through the upper surface of the SU-ECM, but above the focal plane passing through its lower surface. The minimum viability of the cells in each assay was always ascertained at the time of assay by determining the fraction of spread, adherent cells on the bottom of each well scored.
An invasion frequency is defined as the fraction of cells in contact with basement membranes which were located in their interiors at the time of assay. Thus, an invasion frequency of 1 denotes invasion by 100% of the cells in contact with basement membranes. Invasion frequencies were determined multiple times for each cell type assayed. For each type of cell assayed the mean and standard deviation of the invasion frequencies were calculated.
The method of Example 4 is employed, with the addition of varying concentrations of the PHSCN (SEQ ID NO:86) peptide.
Thus, the procedure in Example 4 provides a method for determining the inhibitory potential of the PHSCN (SEQ ID NO:86) peptide by comparing the number of cell invasions in the presence of the PHSCN (SEQ ID NO:86) peptide, with the number of cell invasions in the absence of the PHSCN (SEQ ID NO:86) peptide.

[2] = test system: normal human mammary epithelial cells; assay: SU-ECM invasion assay, normal human mammary epithelial cells; assay type: cell-based; conditions: 10% FCS, 100 ng per ml PHSRN, FIG. 5B
Experimental: Adult Strongylocentrotus purpuratus sea urchins were obtained from Pacific BioMarine, and their embryos were cultured to the early pluteus stage in artificial sea water at 15° C. SU-ECM were prepared from them by treatment with nonionic detergent and strerilized by dilution in the appropriate media. […]
Invasion assays were coded and scored blindly by microscopic examination under phase contrast at 200- and 400-fold magnification. Each cell contacting an SU-ECM was scored for its position relative to the exterior or interior surfaces. […] The minimum viability of the cells in each assay was always ascertained at the time of assay by determining the fraction of spread, adherent cells on the bottom of each well scored.
An invasion frequency is defined as the fraction of cells in contact with basement membranes which were located in their interiors at the time of assay. […] Invasion frequencies were determined multiple times for each cell type assayed. For each type of cell assayed the mean and standard deviation of the invasion frequencies were calculated. […]

MatLyLu (MLL) tumors = assay: MLL prostate tumor growth and metastasis in rats, treatment begun after 24 hours (Example 13); assay type: in vivo, Copenhagen rats
Experimental: In the first part of this example, 20 Copenhagen rats were injected with 500,000 MatLyuLu (MLL) cells subcutaneously in the thigh. To more closely approximate a real clinical situation, PHSCN (SEQ ID NO:86) peptide treatment of 10 of these rats was initiated after 24 hours, instead of immediately. The 10 treated rats (MLL/PHSCN (SEQ ID NO:86)) received a total of 5 i.v. injections of 1 mg of the PHSCN (SEQ ID NO:86) peptide through the tail vein over two weeks. Tumor sizes were measured with calipers on day 14, and the tumors in the untreated rats were removed. Since the injected tumors in the MLL/PHSCN (SEQ ID NO:86) rats were still small, they were retained in the rats for another 7 to 9 days following the last PHSCN (SEQ ID NO:86) injection. At this time, their sizes were all greater than 2 cm, and they were also removed.
In the second part of this example, the MLL/PHSCN (SEQ ID NO:86) rats received 2 more i.v. doses of the PHSCN (SEQ ID NO:86) peptide prior to sacrifice. Ten days after the sizes of the injected primary tumors were determined, all the rats in the two groups (MLL only and MLL/PHSCN (SEQ ID NO:86)) were sacrificed, and the number of lung metastases was determined at 7.5-fold magnification.
The 20 rats described in parts one and two of this example were also examined for metastatic tissues in […]. All of these metastases were dissected and weighed. FIG. 10C plots the mean masses of intraperitoneal metastases (grams) for the two groups of 10 rats. […] This may be due to the anti-angiogenic effect of the PHSCN (SEQ ID NO:86) peptide, as described in part one of this example. In this manner, the PHSCN (SEQ ID NO:86) peptide maybe an effective anti-metastatic, growth-inhibiting chemotherapeutic agent for use in the treatment of cancer.

[3] = Clotting of peptide-treated blood in vivo; conditions: in vivo observation
Text: In addition to using the PHSRN (SEQ ID NO:1) antagonists described above as anti-invasion chemotherapeutics, it is also contemplated that these antagonists be used as anti-thrombotics.

With Pro-His-Ser-Cys-Asn (PHSCN) the “inhibition of PHSRN-induced invasion of SU-ECM” value ([1]; higher concentrations) was “almost complete inhibition”, the “inhibition of PHSRN-induced invasion of SU-ECM” value ([1]; low concentrations) was “substantial inhibitory affect” and the “inhibition of serum-induced invasion of SU-ECM” value ([1]; relatively high PHSCN concentrations) was “complete inhibition”. For the same substance, the “inhibition of serum-induced invasion of SU-ECM” value ([1]; relatively low PHSCN concentrations) was “substantial inhibitory affect”, the “inhibition of PHSRN-induced invasion of SU-ECM” value ([2]; higher concentrations) was “almost complete inhibition” and the “inhibition of PHSRN-induced invasion of SU-ECM” value ([2]; low concentrations) was “substantial inhibitory affect”. The tumor size (MatLyLu (MLL) tumors; 7 to 9 days following the last PHSCN injection) was “greater than 2 cm”, the “mean numbers of lung metastases” value (MatLyLu (MLL) tumors; compared to untreated rats, 7.5-fold magnification, ten days after tumor sizing, FIG. 10B) was “significant reduction” and the “mean masses of intraperitoneal (lymphatic) metastases” value (MatLyLu (MLL) tumors; compared to untreated rats, FIG. 10C) was “significant reduction”. For the same substance, the “growth of rat prostate cancer tumors (tumor size, calipers)” value (MatLyLu (MLL) tumors; day 14, 5 i.v. injections of 1 mg over two weeks, started after 24 hours, FIG. 10A) was “substantially slows the growth” and the “clotting of peptide-treated blood” value [3] was “clot very slowly”.
